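These data come from cells grown in 96-well plates and exposed to compound for 48 hours at five concentrations. GI50 is the concentration that inhibits growth by half. The concentration for full growth arrest is given as TGI.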
Columns and labels:
Test in all cases: growth of human tumour cells (NCI), 48 h
SN12C renal = tested on: SN12C renal
UO-31 renal = tested on: UO-31 renal
SW-620 colon = tested on: SW-620 colon
SK-MEL-2 melanoma = tested on: SK-MEL-2 melanoma
IGROV1 ovarian = tested on: IGROV1 ovarian
KM12 colon = tested on: KM12 colon
HS 578T breast = tested on: HS 578T breast
T-47D breast = tested on: T-47D breast
MDA-MB-231 breast = tested on: MDA-MB-231 breast
NCI/ADR-RES ovarian = tested on: NCI/ADR-RES ovarian

| Structure (SMILES) | TGI (SN12C renal) [µM] | TGI (UO-31 renal) [µM] | TGI (SW-620 colon) [µM] | TGI (SK-MEL-2 melanoma) [µM] | TGI (IGROV1 ovarian) [µM] | TGI (KM12 colon) [µM] | GI50 (HS 578T breast) [µM] | TGI (HS 578T breast) [µM] | GI50 (SN12C renal) [µM] | GI50 (UO-31 renal) [µM] | GI50 (T-47D breast) [µM] | TGI (T-47D breast) [µM] | GI50 (KM12 colon) [µM] | GI50 (MDA-MB-231 breast) [µM] | TGI (MDA-MB-231 breast) [µM] | GI50 (SW-620 colon) [µM] | GI50 (NCI/ADR-RES ovarian) [µM] | TGI (NCI/ADR-RES ovarian) [µM] | GI50 (SK-MEL-2 melanoma) [µM] | GI50 (IGROV1 ovarian) [µM] |
| --- | --- | --- | --- | --- | --- | --- | --- | --- | --- | --- | --- | --- | --- | --- | --- | --- | --- | --- | --- | --- |
| O=C(Cc1nc2ccccc2o1)C(=O)Nc1ccc(Cl)cc1Cl | > 100 | > 100 | > 100 | > 100 | > 100 |  |  |  |  |  |  |  |  |  |  |  |  |  |  |  |
| COC(=O)C1=CCC2c3[nH]c4ccccc4c3CCN2C1 (configuration not stated) | > 354 |  | > 354 | > 354 | > 354 | > 354 |  |  |  |  |  |  |  |  |  |  |  |  |  |  |
| Cc1cc(C)c(/C=N/NS(=O)(=O)c2ccccc2)c(C)c1 | > 100 | > 100 | > 100 | > 100 | > 100 | > 100 |  |  |  |  |  |  |  |  |  |  |  |  |  |  |
| CCCCOC(=O)c1c(C)[nH]c(/C=C2\N=C(c3ccc[nH]3)C=C2OC)c1C | 2.54 | 0.337 | 1.44 | 0.381 | 2.39 | 1.86 | 0.147 | 1.19 | 0.226 | 0.137 | 0.347 | 1.9 | 0.11 | 0.056 | 0.764 | 0.0569 | 0.121 | 2.92 | 0.103 | 0.232 |
| N#C/C(=C\c1ccc[nH]1)C(=O)c1ccccc1 | > 100 | > 100 | > 100 | > 100 |  | > 100 |  |  |  |  |  |  |  |  |  |  |  |  |  |  |
| CCc1ccccc1NC(=O)C(=O)C1C(=O)N(c2ccccc2)N=C1N (configuration not stated) | > 100 | > 100 | > 100 | > 100 | > 100 | > 100 |  |  |  |  |  |  |  |  |  |  |  |  |  |  |
| O=C(CCCn1ccnc1[N+](=O)[O-])NCCn1cnc([N+](=O)[O-])n1 | > 100 | > 100 | > 100 | > 100 | > 100 | > 100 |  | > 100 |  |  |  | > 100 |  |  |  |  |  | > 100 |  |  |
| Fc1ccc(Nc2nc3nonc3nc2Nc2ccc(I)cc2)cc1 | 11.2 | 0.858 | 15.6 | 0.617 | 13.3 | 11.4 | 0.617 | 13.6 | 0.26 | 0.156 | 0.228 | 0.892 | 0.332 | 0.31 | 1.72 | 0.387 | 0.272 | 1.95 | 0.213 | 0.217 |
| CCCCCCCCCCCCCCCCCC[S+](C)CC (configuration not stated) | 4.44 | 2.62 | 2.89 |  |  | 2.45 |  |  | 1.86 | 1.2 | 2.36 | 18.8 | 1.14 | 1.67 | 3.83 | 1.46 | 11.4 | 37.2 |  |  |
| Cc1ccccc1-n1c(CCl)nc2ccc(Br)cc2c1=O | 16.6 | 28.2 | 8.95 | 32.5 | 33.1 | 26.9 |  |  |  |  |  |  |  |  |  |  |  |  |  |  |
| CN(C)CCCCNc1ccc(NCCCCN(C)C)c2c1C(=O)c1c(O)ccc(O)c1C2=O | 25.8 | 2.93 | 2.83 | 32.5 | 3.03 | 2.84 |  |  | 13.1 | 1.43 | 18.5 | 33.2 | 1.51 | 1.47 | 2.78 | 1.51 | 1.62 | 3.08 | 18 | 1.52 |
| CC1C(O)=C(O)c2ccccc2N1O (configuration not stated) | > 100 | > 100 | > 100 | > 100 | > 100 | > 100 |  |  |  |  |  |  |  |  |  |  |  |  |  |  |
| Cc1cc(C)nc(NS(=O)(=O)c2ccc(NC(=O)COC(=O)c3cccc4c(=O)c5ccccc5[nH]c34)cc2)n1 | > 100 | > 100 | 83.9 |  | > 100 | 38.8 |  |  |  |  |  |  |  |  |  |  |  |  |  |  |
| CC1=CC[C@@H](C(C)(C)O)C[C@@H]1O | > 5000 | > 5000 | > 5000 | > 5000 | > 5000 | > 5000 |  |  |  |  |  |  |  |  |  |  |  |  |  |  |
| CC1=C(C(=O)Nc2ccc(C)cc2)C(c2cccc([N+](=O)[O-])c2)C(C(=O)Nc2ccc(C)cc2)=C(C)N1 | 67.4 | > 100 | > 100 | 54.8 | 66.8 | 40.2 |  |  |  |  |  |  |  |  |  |  |  |  |  |  |
| CC[As](CC)SCC1OC(OC(C)=O)C(OC(C)=O)C(OC(C)=O)C1OC(C)=O (configuration not stated) | 28.4 | 29.8 | 16.3 | 26.2 | 33.8 | 34.7 |  |  |  |  |  |  |  |  |  |  |  |  |  |  |
| COC(=O)C1=CC(=O)[C@@H]2CCCC[C@H]12 | > 100 | > 100 | > 100 | > 100 |  | > 100 |  |  |  |  |  |  |  |  |  |  |  |  |  |  |
| CC#CC#C/C(=C/C=CC(=O)OC)SC | > 100 |  | > 100 | > 100 | > 100 | > 100 |  | > 100 |  |  |  | > 100 |  |  | > 100 |  |  | > 100 |  |  |
| CCN(CC)C(=O)CC12CCCCC1=Nc1ccccc12 (configuration not stated) |  |  | > 100 | > 100 | > 100 | > 100 |  |  |  |  |  |  |  |  |  |  |  |  |  |  |
| COC(=O)C(C(=O)C(=O)Nc1ccccc1C)c1nc2ccc([N+](=O)[O-])cc2[nH]c1=O (configuration not stated) | > 100 | > 100 | > 100 | > 100 | > 100 | > 100 |  |  |  |  |  |  |  |  |  |  |  |  |  |  |
| COc1cc2c(cc1-c1coc3cc(O)ccc3c1=O)OCO2 | 67.2 | 58.4 | > 100 | > 100 | 53.7 | > 100 |  | 58.2 |  |  |  | 65.6 |  |  |  |  |  | 48.4 |  |  |
| COc1ccc2nc3ccccc3c(NCCN(CCCl)CCCl)c2c1 | 4.21 | 4.39 | 2.51 |  | 4.34 | 4.37 |  |  |  |  |  |  |  |  |  |  |  |  |  |  |
| CCN(/N=C1\CC2C=CCN(C2)C(=O)Cc2c1[nH]c1ccccc21)S(=O)(=O)c1ccc(C)cc1 (configuration not stated) | > 100 | > 100 | > 100 | > 100 | > 100 | > 100 |  |  |  |  |  |  |  |  |  |  |  |  |  |  |
| O=C(CC1(O)C(=O)Nc2ccccc21)c1ccccc1O (configuration not stated) | > 100 | > 100 | > 100 | > 100 | > 100 |  |  |  |  |  |  |  |  |  |  |  |  |  |  |  |

Reference: PubChem BioAssay (NCI)
